Earlier results as cited in patent US8980870B2, “Solid telmisartan pharmaceutical formulations” (Boehringer Ingelheim International GmbH, priority 2002, dated 2015).

Settings: physiological pH range of the gastrointestinal tract, between pH 1 to 7; both polymorphic forms A and B

CCCc1nc2c(C)cc(-c3nc4ccccc4n3C)cc2n1Cc1ccc(-c2ccccc2C(=O)O)cc1 [telmisartan, 4′-[2-n-propyl-4-methyl-6-(1-methylbenzimidazol-2-yl)benzimidazol-1-ylmethyl]biphenyl-2-carboxylic acid]
solubility in aqueous systems: very poor solubility
